Source: patent US7049289B1, “Labelled glutamine and lysine analogues” (Amersham PLC, priority 1998, dated 2006)
*1 amine or outer side, *2 acyl side, *3 side chain or, on linkers, in order; H or OH if unused. The star is where a group is joined. Fmoc = O=C(OCC1c2ccccc2-c2ccccc21)*; Glutaryl = O=C(CCCC(=O)[*:2])[*:1]

Key:
[1] = molecular target: T1, fibrin (in vitro human plasma clot) (Homo sapiens, UniProt P02671+P02675+P02679); experiment: Incorporation into human plasma clots in vitro; type: biochemical; details: for % specific uptake: % retained (with thrombin) - % retained (no thrombin); for % retained (no thrombin): control without thrombin and calcium chloride (non-specific binding); for % retained (with thrombin): human plasma clot, 60 minutes, ca. 20° C.
T1 construct: about 400 μl of human plasma containing the radiolabelled substrate; from tissue; host or cells: human plasma, clotted in vitro with added thrombin and calcium chloride
T1 sequence (P02671 20-644 isoform P02671-2 limits assumed): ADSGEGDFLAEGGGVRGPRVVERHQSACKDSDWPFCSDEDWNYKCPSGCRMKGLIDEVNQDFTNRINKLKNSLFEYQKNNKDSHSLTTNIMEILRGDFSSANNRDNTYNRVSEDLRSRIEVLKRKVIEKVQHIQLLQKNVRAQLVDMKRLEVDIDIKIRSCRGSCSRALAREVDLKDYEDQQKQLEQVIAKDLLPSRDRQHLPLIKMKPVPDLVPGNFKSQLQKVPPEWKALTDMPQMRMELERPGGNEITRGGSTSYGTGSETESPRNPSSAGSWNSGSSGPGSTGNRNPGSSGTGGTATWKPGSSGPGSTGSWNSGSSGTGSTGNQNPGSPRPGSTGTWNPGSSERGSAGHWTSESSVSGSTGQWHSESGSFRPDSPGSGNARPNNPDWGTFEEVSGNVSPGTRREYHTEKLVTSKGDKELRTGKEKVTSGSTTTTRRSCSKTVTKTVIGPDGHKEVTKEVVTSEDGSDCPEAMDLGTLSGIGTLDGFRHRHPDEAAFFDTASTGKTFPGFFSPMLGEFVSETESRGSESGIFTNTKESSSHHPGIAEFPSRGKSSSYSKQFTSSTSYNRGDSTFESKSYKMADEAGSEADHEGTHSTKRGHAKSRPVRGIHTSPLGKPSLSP
T1 sequence (P02675 45-491 limits assumed): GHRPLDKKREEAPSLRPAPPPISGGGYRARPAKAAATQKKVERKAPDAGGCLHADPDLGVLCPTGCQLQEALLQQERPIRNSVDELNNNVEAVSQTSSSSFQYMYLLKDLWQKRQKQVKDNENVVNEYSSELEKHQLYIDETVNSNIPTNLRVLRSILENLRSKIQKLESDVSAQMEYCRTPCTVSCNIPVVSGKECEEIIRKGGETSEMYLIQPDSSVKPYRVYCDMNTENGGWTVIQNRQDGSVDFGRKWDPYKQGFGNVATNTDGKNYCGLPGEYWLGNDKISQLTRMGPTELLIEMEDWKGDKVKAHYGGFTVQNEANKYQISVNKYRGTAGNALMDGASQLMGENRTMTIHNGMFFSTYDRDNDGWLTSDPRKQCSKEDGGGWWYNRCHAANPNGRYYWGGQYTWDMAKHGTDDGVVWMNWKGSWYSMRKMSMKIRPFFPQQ
T1 sequence (P02679 27-437 isoform P02679-2 limits assumed): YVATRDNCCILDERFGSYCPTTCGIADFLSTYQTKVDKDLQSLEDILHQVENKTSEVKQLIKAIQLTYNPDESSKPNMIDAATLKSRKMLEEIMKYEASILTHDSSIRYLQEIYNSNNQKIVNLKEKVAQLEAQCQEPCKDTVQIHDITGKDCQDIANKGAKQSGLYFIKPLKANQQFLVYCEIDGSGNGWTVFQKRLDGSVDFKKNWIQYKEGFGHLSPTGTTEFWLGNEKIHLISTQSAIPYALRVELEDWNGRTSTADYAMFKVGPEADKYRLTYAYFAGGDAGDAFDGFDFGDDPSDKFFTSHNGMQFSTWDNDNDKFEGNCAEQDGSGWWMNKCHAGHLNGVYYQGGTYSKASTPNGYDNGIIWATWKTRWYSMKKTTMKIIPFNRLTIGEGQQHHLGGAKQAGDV
Description: Incorporation of radiolabelled substrates into fibrin was investigated by induction of an in vitro human plasma clot in the following manner. To a siliconised 5 ml glass vial was added, (a) 800 μl of Tris(hydroxymethyl)aminomethane buffered saline pH 7.5 containing calcium chloride (50 mM Tris, 150 mM sodium chloride, 4 mM calcium chloride.), (b) about 40 μl of physiological salt solution containing 100 units of thrombin per ml, (c) about 400 μl of human plasma containing the radiolabelled substrate at a concentration of typically 10 kBq/ml. To aid induction of clot a roughened glass rod was added to the reaction vial. Control vials were prepared similarly but with the omission of thrombin and calcium chloride.
After incubation of the test solution at ambient laboratory temperature (ca. 20° C.) for 60 minutes the reaction was discontinued with the addition of about 400 μl of a cold solution of 33.5 mM ethylenediaminetetra-acetic acid disodium salt. Clots were separated from serum by vacuum filtration onto […] nitrocellulose filters (pre-soaked in 1.5% BSA/tris(hydroxymethyl)aminoethae buffered saline pH 7.5 containing 0.1% Tween 20) and washed with about 2×10 ml of tris(hydroxymethyl)aminomethane buffered saline pH 7.5 containing Tween 20 to a final concentration of 0.1% v/v. The proportion of total radioactivity was calculated by counting in suitable detection apparatus.
The fraction of radioactivity retained on the filter, after subtraction of the non-specific binding determined from the control, is a measure of incorporation into the filtered clots.

[2] = Incorporation into clots induced in a rat model (rat inferior vena cava model); type: in vivo, rat (Male Wistar); details: for % id/g (clot) / Rel. Conc. (cpm/g of clot by dose/g animal): sacrificed after 60 min
Description: The rats (Male Wistar, 250–350 g) were anaesthetised with 15% urethane. After laparotomy, the vena cava was isolated and freed of surrounding fat tissue. […] The compounds were injected 5 min (fresh clot) and 60 min (aged clot) post-induction. After 60 min the animals were sacrificed and the clot removed, weighed and counted. Other tissues e.g. blood, lung, heart, were also dissected and counted. The uptake of tracer into the clot was determined as the relative concentration (cpm/g of clot by dose/g animal) and clot to background tissue.

[3] = Aged Clots: injected 60 min post-induction
[4] = Fresh Clots: injected 5 min post-induction

## Fmoc-NQEQVSP(I-Y)TLLKG-Pn216 [^99mTc-Cmpd 26]
[1]
  % specific uptake: 55.1%
  % retained (no thrombin): 8.2%
  % retained (with thrombin): 63.3%
[2]; Aged Clots
  Clot/blood: 7
  Clot/heart: 31
  Clot/liver: 54
  Clot/lung: 12
[2]; [3]
  % id/g (clot): 4.0 ± 0.9 % id/g
  Rel. Conc. (cpm/g of clot by dose/g animal): 12.9 ± 3.5
[2]; Fresh Clots
  Clot/blood: 16
  Clot/heart: 38
  Clot/liver: 16
  Clot/lung: 11
[2]; [4]
  % id/g (clot): 14.1 ± 10 % id/g
  Rel. Conc. (cpm/g of clot by dose/g animal): 41.4 ± 28

## Fmoc-NQEQVSPYTLLKG-Pn216 (also: 99mTc complex) [^99mTc-Cmpd 9]
[1]
  % specific uptake: 42.8%
  % retained (no thrombin): 2.7%
  % retained (with thrombin): 44.5%
[2]; Aged Clots
  Clot/blood: 8
  Clot/heart: 21
  Clot/liver: 6
  Clot/lung: 7
[2]; [3]
  % id/g (clot): 3.7 ± 0.4 % id/g
  Rel. Conc. (cpm/g of clot by dose/g animal): 11.4 ± 1.5
[2]; Fresh Clots
  Clot/blood: 13
  Clot/heart: 32
  Clot/liver: 13
  Clot/lung: 12
[2]; [4]
  % id/g (clot): 8.8 ± 3.6 % id/g
  Rel. Conc. (cpm/g of clot by dose/g animal): 24.8 ± 9.6

## Fmoc-NQQQ(D-V)S(OMe)PLG-Pn216 [^99mTc-Cmpd 37]
[1]
  % specific uptake: 12.8%
  % retained (no thrombin): 0.2%
  % retained (with thrombin): 13.0%
[2]; Aged Clots
  Clot/blood: 0.4
  Clot/heart: 2
  Clot/liver: 9
  Clot/lung: 1
[2]; [3]
  % id/g (clot): 0.2 ± 0.03 % id/g
  Rel. Conc. (cpm/g of clot by dose/g animal): 0.5 ± 0.1
[2]; Fresh Clots
  Clot/blood: 0.6
  Clot/heart: 1
  Clot/liver: 1
  Clot/lung: 0.7
[2]; [4]
  % id/g (clot): 0.4 ± 0.2 % id/g
  Rel. Conc. (cpm/g of clot by dose/g animal): 0.9 ± 0.4

## NQEQVSPYTLLK [^123I-Cmpd 1, reference compound]
[1]
  % specific uptake: 12.6%
  % retained (no thrombin): 2.0%
  % retained (with thrombin): 14.6%
[2]
  RC (in vivo clot uptake): 1.5
[2]; Fresh Clots
  Clot/blood: 1
[2]; [4]
  % id/g (clot): 0.5 ± 0.1 % id/g
  Rel. Conc. (cpm/g of clot by dose/g animal): 1.6 ± 0.4

## Pn44-CO(CH2)3CO-NQEQVSPYTLLKG-NH2 ({Pn44-Glutaryl}-NQEQVSPYTLLKG-NH2; also: 99mTc complex) [^99mTc-Cmpd 38]
[1]
  % specific uptake: 20.3%
  % retained (no thrombin): 0.7%
  % retained (with thrombin): 21.0%
[2]; Aged Clots
  Clot/blood: 3
  Clot/heart: 1
  Clot/liver: 2
  Clot/lung: 0.5
[2]; [3]
  % id/g (clot): 0.8 ± 0.3 % id/g
  Rel. Conc. (cpm/g of clot by dose/g animal): 2.4 ± 0.7
[2]; Fresh Clots
  Clot/blood: 5
  Clot/heart: 15
  Clot/liver: 3
  Clot/lung: 6
[2]; [4]
  % id/g (clot): 1.9 ± 0.5 % id/g
  Rel. Conc. (cpm/g of clot by dose/g animal): 5.4 ± 1.5
